# Results reported in patent US11384055B2 (BIOMARIN PHARMACEUTICAL INC., priority 2017, dated 2022).
# Molecular target: T1, Human GO (Homo sapiens, UniProt Q9UJM8)
# T1 construct: purchased Novus Biologicals NBP1-72412
# T1 sequence (Q9UJM8 1-370): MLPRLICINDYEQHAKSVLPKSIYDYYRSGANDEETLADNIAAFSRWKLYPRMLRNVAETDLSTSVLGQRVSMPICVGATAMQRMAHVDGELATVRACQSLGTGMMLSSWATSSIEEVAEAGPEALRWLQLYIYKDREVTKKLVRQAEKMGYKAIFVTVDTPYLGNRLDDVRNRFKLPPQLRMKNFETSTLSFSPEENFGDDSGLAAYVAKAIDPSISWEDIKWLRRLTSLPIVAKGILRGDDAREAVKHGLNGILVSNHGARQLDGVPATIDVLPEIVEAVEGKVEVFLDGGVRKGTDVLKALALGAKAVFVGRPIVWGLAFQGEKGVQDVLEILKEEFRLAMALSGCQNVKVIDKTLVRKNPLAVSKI
# Assay: GO enzymatic assay (coupled fluorescence/HRP assay, glycolate substrate)
# Type: biochemical
# Conditions: not given
# In short: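 Human GO incubated with glycolate substrate in 50 mM potassium phosphate, pH 7, with varying inhibitor concentrations. Activity read by coupled HRP fluorescence. IC50 taken from variable-slope sigmoidal dose-response fits of percent inhibition relative to DMSO control.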
row,Compound,IC50 [µM]
1,"O=C(O)c1[nH]nnc1-c1ccc(Cl)c(Cl)c1 [Compound 125, 4-(3,4-dichlorophenyl)-1H-1,2,3-triazole-5-carboxylic acid]",< 0.1
2,"O=C(O)c1[nH]nnc1-c1ccc(-c2ccc(Cl)cc2)cc1 [Compound 126, 2,2,2-trifluoroacetate]",< 0.1
3,"O=C(O)c1[nH]nnc1-c1ccc(-c2ccc(Cl)cc2)c(Cl)c1 [Compound 130, 2,2,2-trifluoroacetate]",< 0.1

# More lines, now with the values ahead:
row,IC50 [µM],Compound
1,0.1 to 1,O=C(O)c1[nH]nnc1-c1ccc(-c2ccc(OC(F)(F)F)cc2)cc1 [Compound 128]
2,< 0.1,"O=C(O)c1[nH]nnc1-c1ccc2cc(Cl)ccc2c1 [Compound 133, 4-(6-chloronaphthalen-2-yl)-1H-1,2,3-triazole-5-carboxylic acid]"
3,< 0.1,"O=C(O)c1[nH]nnc1-c1cccc(OC(F)(F)F)c1 [Compound 135, 4-(3-(trifluoromethoxy)phenyl)-1H-1,2,3-triazole-5-carboxylic acid]"

# Same assay, conditions: Table 1; read-out: Range (range of IC50 values calculated from the enzymatic assays)
row,Compound,IC50 [µM]
1,"O=C(O)c1[nH]nnc1OC1CCc2cc(Cl)c(Cl)cc2C1 (stereo not drawn) [Compound 111, 4-((6,7-dichloro-1,2,3,4-tetrahydronaphthalen-2-yl)oxy)-1H-1,2,3-triazole-5-carboxylic acid 2,2,2-trifluoroacetate]",< 0.1
2,"O=C(OC1CC1)c1[nH]nnc1Oc1ccc(Cl)c(Cl)c1 [Compound 112, cyclopropyl 4-(3,4-dichlorophenoxy)-1H-1,2,3-triazole-5-carboxylate]",> 10
3,"O=C(O)c1[nH]nnc1Oc1ccc2cccnc2c1 [Compound 113, 4-(quinolin-7-yloxy)-1H-1,2,3-triazole-5-carboxylic acid 2,2,2-trifluoroacetate]",< 0.1
4,"O=C(O)c1[nH]nnc1Oc1cccc(OC(F)(F)F)c1 [Compound 114, 4-(3-(trifluoromethoxy)phenoxy)-1H-1,2,3-triazole-5-carboxylic acid]",< 0.1
5,"O=C(O)c1[nH]nnc1Oc1cnc2ccccc2c1 [Compound 115, 4-(quinolin-3-yloxy)-1H-1,2,3-triazole-5-carboxylic acid 2,2,2-trifluoroacetate]",0.1 to 1
6,"O=C(OC1CC1)c1[nH]nnc1Oc1ccc2c(c1)CCCC2 [Compound 116, cyclopropyl 4-((5,6,7,8-tetrahydronaphthalen-2-yl)oxy)-1H-1,2,3-triazole-5-carboxylate]",> 10
7,"O=C(O)c1[nH]nnc1OC1CCc2ccccc2C1 (stereo not drawn) [Compound 117, 4-((1,2,3,4-tetrahydronaphthalen-2-yl)oxy)-1H-1,2,3-triazole-5-carboxylic acid 2,2,2-trifluoroacetate]",< 0.1
8,"O=C(O)c1[nH]nnc1Oc1ccc2ccncc2c1 [Compound 118, 4-(isoquinolin-7-yloxy)-1H-1,2,3-triazole-5-carboxylic acid 2,2,2-trifluoroacetate]",< 0.1
9,"O=C(O)c1[nH]nnc1Oc1ccc(-c2ccc(OC(F)(F)F)cc2)c(Cl)c1 [Compound 119, 4-((2-chloro-4′-(trifluoromethoxy)-[1,1′-biphenyl]-4-yl)oxy)-1H-1,2,3-triazole-5-carboxylic acid]",< 0.1
10,"O=C(O)c1[nH]nnc1Oc1ccc2ncccc2c1 [Compound 120, 4-(quinolin-6-yloxy)-1H-1,2,3-triazole-5-carboxylic acid 2,2,2-trifluoroacetate]",0.1 to 1
11,"O=C(O)c1[nH]nnc1Oc1ccc2cnccc2c1 [Compound 121, 4-(isoquinolin-6-yloxy)-1H-1,2,3-triazole-5-carboxylic acid 2,2,2-trifluoroacetate]",0.1 to 1
12,"O=C(O)c1[nH]nnc1Oc1ccc(-c2ccc3ncccc3c2)cc1 [Compound 122, 5-(4-(quinolin-6-yl)phenoxy)-1H-1,2,3-triazole-4-carboxylic acid]",< 0.1
13,"O=C(O)c1[nH]nnc1-c1csc(-c2ccc(Cl)c(Cl)c2)n1 [Compound 124, 4-(2-(3,4-dichlorophenyl)thiazol-4-yl)-1H-1,2,3-triazole-5-carboxylic acid]",< 0.1
14,"O=C(O)c1[nH]nnc1-c1ccc(Oc2ccc(Cl)cc2)cc1 [Compound 127, 4-(4-(4-chlorophenoxy)phenyl)-1H-1,2,3-triazole-5-carboxylic acid]",< 0.1

# Next, values leading:
row,IC50 [µM],Compound
1,< 0.1,"O=C(O)c1[nH]nnc1-c1cccc(-c2ccc(Cl)c(Cl)c2)c1 [Compound 129, 4-(3′,4′-dichloro-[1,1′-biphenyl]-3-yl)-1H-1,2,3-triazole-5-carboxylic acid]"
2,< 0.1,"O=C(O)c1[nH]nnc1-c1cccc(Oc2ccc(Cl)c(Cl)c2)c1 [Compound 131, 4-(3-(3,4-dichlorophenoxy)phenyl)-1H-1,2,3-triazole-5-carboxylic acid 2,2,2-trifluoroacetate]"
3,< 0.1,"O=C(O)c1[nH]nnc1-c1ccc2cc(Cl)ccc2n1 [Compound 132, 4-(6-chloroquinolin-2-yl)-1H-1,2,3-triazole-5-carboxylic acid 2,2,2-trifluoroacetate]"
4,> 10,"O=C(O)c1[nH]nnc1-c1nccc2ccc(Cl)cc12 [Compound 134, 4-(7-chloroisoquinolin-1-yl)-1H-1,2,3-triazole-5-carboxylic acid]"
5,0.1 to 1,"O=C(O)c1[nH]nnc1-c1ccc(OC(F)(F)F)cc1 [Compound 136, 4-(4-(trifluoromethoxy)phenyl)-1H-1,2,3-triazole-5-carboxylic acid]"
6,0.1 to 1,"O=C(O)c1[nH]nnc1-c1ccc(OCC2CCCC2)cc1 [Compound 137, 4-(4-(cyclopentylmethoxy)phenyl)-1H-1,2,3-triazole-5-carboxylic acid]"
7,0.1 to 1,"O=C(O)c1[nH]nnc1-c1ccc(OC2CCCC2)cc1 [Compound 138, 4-(4-(cyclopentyloxy)phenyl)-1H-1,2,3-triazole-5-carboxylic acid]"
8,0.1 to 1,"O=C(O)c1[nH]nnc1-c1ccc(-c2ccc(OC(F)(F)F)cc2)c(Cl)c1 [Compound 139, 4-(2-chloro-4′-(trifluoromethoxy)-[1,1′-biphenyl]-4-yl)-1H-1,2,3-triazole-5-carboxylic acid 2,2,2-trifluoroacetate]"
9,< 0.1,"O=C(O)c1[nH]nnc1C1=Cc2ccccc2CC1 [Compound 140, 4-(3,4-dihydronaphthalen-2-yl)-1H-1,2,3-triazole-5-carboxylic acid 2,2,2-trifluoroacetate]"
10,0.1 to 1,"O=C(O)c1[nH]nnc1C1CCc2ccccc2C1 (stereo not drawn) [Compound 141, 4-(1,2,3,4-tetrahydronaphthalen-2-yl)-1H-1,2,3-triazole-5-carboxylic acid 2,2,2-trifluoroacetate]"
11,> 10,"CC(C)N1CCc2cc(-c3nn[nH]c3C(=O)O)ccc2C1 [Compound 143, 4-(2-isopropyl-1,2,3,4-tetrahydroisoquinolin-6-yl)-1H-1,2,3-triazole-5-carboxylic acid 2,2,2-trifluoroacetate]"
12,> 10,"CC(C)N1CCc2ccc(-c3nn[nH]c3C(=O)O)cc2C1 [Compound 144, 4-(2-isopropyl-1,2,3,4-tetrahydroisoquinolin-7-yl)-1H-1,2,3-triazole-5-carboxylic acid 2,2,2-trifluoroacetate]"
13,1 to 10,"O=C(O)c1[nH]nnc1-c1ccc(OC(F)(F)F)cn1 [Compound 145, 4-(5-(trifluoromethoxy)pyridin-2-yl)-1H-1,2,3-triazole-5-carboxylic acid 2,2,2-trifluoroacetate]"
14,1 to 10,"O=C(O)c1[nH]nnc1C(=O)N1CCC(c2ccc(Cl)cc2)C1 (stereo not drawn) [Compound 146, 4-(3-(4-chlorophenyl)pyrrolidine-1-carbonyl)-1H-1,2,3-triazole-5-carboxylic acid]"
15,1 to 10,"O=C(O)c1[nH]nnc1C(=O)N1Cc2ccc(Cl)cc2C1 [Compound 147, 4-(5-chloroisoindoline-2-carbonyl)-1H-1,2,3-triazole-5-carboxylic acid]"
16,< 0.1,"O=C(O)c1[nH]nnc1C(=O)N1CCc2cc(Cl)ccc21 [Compound 148, 4-(5-chloroindoline-1-carbonyl)-1H-1,2,3-triazole-5-carboxylic acid]"
17,1 to 10,"O=C(O)c1[nH]nnc1C(=O)N1CCC(c2ccc(Cl)cc2Cl)C1 (stereo not drawn) [Compound 149, 4-(3-(2,4-dichlorophenyl)pyrrolidine-1-carbonyl)-1H-1,2,3-triazole-5-carboxylic acid]"
18,1 to 10,"O=C(O)c1[nH]nnc1C(=O)N1CCC(c2ccc(Cl)c(Cl)c2)C1 (stereo not drawn) [Compound 150, 4-(3-(3,4-dichlorophenyl)pyrrolidine-1-carbonyl)-1H-1,2,3-triazole-5-carboxylic acid]"
19,< 0.1,"O=C(O)c1[nH]nnc1SCc1ccc(Cl)c2ccccc12 [Compound 152, 4-(((4-chloronaphthalen-1-yl)methyl)thio)-1H-1,2,3-triazole-5-carboxylic acid 2,2,2-trifluoroacetate]"
20,0.1 to 1,"O=C(O)c1[nH]nnc1Nc1cc(Cl)cc(Cl)c1 [Compound 153, 4-((3,5-dichlorophenyl)amino)-1H-1,2,3-triazole-5-carboxylic acid]"

# Same assay, conditions: Table 6; GO enzymatic assay; read-out: Range (range of IC50 values calculated from the enzymatic assays)
row,IC50 [µM],Compound
1,< 0.1,"O=C(O)c1[nH]nnc1O[C@@H]1CCc2cc(Cl)c(Cl)cc2C1 [Compound 111-1, (R)-4-((6,7-dichloro-1,2,3,4-tetrahydronaphthalen-2-yl)oxy)-1H-1,2,3-triazole-5-carboxylic acid]"
2,< 0.1,"O=C(O)c1[nH]nnc1O[C@H]1CCc2cc(Cl)c(Cl)cc2C1 [Compound 111-2, (S)-4-((6,7-dichloro-1,2,3,4-tetrahydronaphthalen-2-yl)oxy)-1H-1,2,3-triazole-5-carboxylic acid]"
